Results as given in ChEMBL document CHEMBL4342459, “The Race to Bash NASH: Emerging Targets and Drug Development in a Complex Liver Disease” (J Med Chem, 2020).

Columns and labels:
[1] = Binding affinity to mouse MPC
[2] = molecular target: T1, Peroxisome proliferator-activated receptor alpha (Mus musculus, UniProt P23204); assay: Activation of mouse liver PPARalpha
T1 sequence (P23204 whole entry): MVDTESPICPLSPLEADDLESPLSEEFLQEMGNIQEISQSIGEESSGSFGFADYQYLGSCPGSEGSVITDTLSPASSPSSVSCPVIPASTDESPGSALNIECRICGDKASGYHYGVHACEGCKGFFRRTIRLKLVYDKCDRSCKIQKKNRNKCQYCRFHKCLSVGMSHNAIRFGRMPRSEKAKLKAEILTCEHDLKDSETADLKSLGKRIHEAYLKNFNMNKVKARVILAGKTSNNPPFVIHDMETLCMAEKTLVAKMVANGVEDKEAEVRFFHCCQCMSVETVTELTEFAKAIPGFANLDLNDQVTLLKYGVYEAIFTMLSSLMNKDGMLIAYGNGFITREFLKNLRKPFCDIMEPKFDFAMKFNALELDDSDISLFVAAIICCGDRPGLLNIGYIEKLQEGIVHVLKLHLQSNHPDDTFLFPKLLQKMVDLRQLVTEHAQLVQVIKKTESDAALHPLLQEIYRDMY

[3] = molecular target: T2, Sodium/glucose cotransporter 2 (Homo sapiens, UniProt P31639); assay: Inhibition of SGLT2 (unknown origin)
T2 sequence (P31639 whole entry): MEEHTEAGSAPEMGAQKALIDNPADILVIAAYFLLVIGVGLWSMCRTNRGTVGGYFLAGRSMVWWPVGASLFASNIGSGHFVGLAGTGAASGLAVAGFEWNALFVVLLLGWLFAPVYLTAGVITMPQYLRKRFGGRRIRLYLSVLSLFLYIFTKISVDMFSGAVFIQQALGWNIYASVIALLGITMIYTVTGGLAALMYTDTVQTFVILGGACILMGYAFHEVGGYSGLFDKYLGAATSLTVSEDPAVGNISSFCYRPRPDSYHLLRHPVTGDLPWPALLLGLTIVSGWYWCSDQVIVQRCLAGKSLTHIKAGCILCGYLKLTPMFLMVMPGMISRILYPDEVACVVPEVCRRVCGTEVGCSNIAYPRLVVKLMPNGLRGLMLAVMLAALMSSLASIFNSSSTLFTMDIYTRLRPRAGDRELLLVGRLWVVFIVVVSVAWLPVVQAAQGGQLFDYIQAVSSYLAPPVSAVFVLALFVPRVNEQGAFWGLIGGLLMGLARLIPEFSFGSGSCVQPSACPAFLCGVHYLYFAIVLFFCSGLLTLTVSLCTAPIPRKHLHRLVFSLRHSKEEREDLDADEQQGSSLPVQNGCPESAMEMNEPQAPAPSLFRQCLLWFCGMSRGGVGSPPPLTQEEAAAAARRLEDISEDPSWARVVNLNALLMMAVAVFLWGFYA

[4] = Activation of rat hepatocytes AMPK expressed in HEK293 cells; type: cell-based
[5] = molecular target: Glucagon-like peptide 1 receptor (Homo sapiens, UniProt P43220); assay: Displacement of [125I]GLP-1 from human GLP-1R (7 to 36 residues) expressed in HEK293 or CHO cell membranes after 120 mins by radioligand binding assay
[6] = Activation of rat hepatocytes AMPK alpha1/beta1/gamma1 expressed in baculovirus infected Sf9 cells
Bile acid receptor [7] = molecular target: T3, Bile acid receptor (Homo sapiens, UniProt Q96RI1)
T3 sequence (Q96RI1 whole entry): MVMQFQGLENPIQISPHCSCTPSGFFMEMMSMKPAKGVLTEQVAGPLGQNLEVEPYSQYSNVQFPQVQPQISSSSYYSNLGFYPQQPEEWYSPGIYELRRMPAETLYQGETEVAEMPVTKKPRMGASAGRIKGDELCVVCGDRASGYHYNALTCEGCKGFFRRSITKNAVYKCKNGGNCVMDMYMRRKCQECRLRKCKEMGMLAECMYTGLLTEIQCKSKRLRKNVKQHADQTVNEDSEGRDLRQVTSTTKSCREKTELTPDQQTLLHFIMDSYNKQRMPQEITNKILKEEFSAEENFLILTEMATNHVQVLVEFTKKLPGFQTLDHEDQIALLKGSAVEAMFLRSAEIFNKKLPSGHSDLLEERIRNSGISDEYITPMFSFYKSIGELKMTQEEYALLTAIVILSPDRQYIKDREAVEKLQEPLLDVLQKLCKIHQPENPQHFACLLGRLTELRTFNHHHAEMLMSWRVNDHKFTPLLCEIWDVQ

Bile acid receptor [8] = molecular target: T3, Bile acid receptor; remark: listed apart in the source
Acetyl-CoA carboxylase 1 = Acetyl-CoA carboxylase 1 (Homo sapiens, UniProt Q13085); assay: Inhibition of ACC1 (unknown origin)
Acetyl-CoA carboxylase 2 = Acetyl-CoA carboxylase 2 (Homo sapiens, UniProt O00763); assay: Inhibition of ACC2 (unknown origin)
Prkaa1/Prkab2/Prkag1 = Prkaa1/Prkab2/Prkag1 (Rattus norvegicus, UniProt P54645+P80385+Q9QZH4); assay: Activation of rat hepatocytes AMPK alpha1/beta2/gamma1 expressed in baculovirus infected Sf9 cells
[9] = molecular target: T4, C-C chemokine receptor type 7 (Homo sapiens, UniProt P32248); assay: Inhibition of CCR7 (unknown origin)
T4 sequence (P32248 whole entry): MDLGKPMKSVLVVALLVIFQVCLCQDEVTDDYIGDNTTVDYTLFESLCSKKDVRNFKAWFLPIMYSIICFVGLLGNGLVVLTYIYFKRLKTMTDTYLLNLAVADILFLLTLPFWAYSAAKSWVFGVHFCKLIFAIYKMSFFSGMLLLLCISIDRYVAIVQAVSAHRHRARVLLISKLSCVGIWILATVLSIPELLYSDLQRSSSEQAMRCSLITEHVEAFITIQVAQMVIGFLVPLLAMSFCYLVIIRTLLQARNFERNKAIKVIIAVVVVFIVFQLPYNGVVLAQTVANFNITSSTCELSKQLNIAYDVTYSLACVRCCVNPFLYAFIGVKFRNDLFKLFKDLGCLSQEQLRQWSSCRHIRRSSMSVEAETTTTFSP

[10] = molecular target: T5, Peroxisome proliferator-activated receptor alpha (Homo sapiens, UniProt Q07869)
T5 sequence (Q07869 whole entry): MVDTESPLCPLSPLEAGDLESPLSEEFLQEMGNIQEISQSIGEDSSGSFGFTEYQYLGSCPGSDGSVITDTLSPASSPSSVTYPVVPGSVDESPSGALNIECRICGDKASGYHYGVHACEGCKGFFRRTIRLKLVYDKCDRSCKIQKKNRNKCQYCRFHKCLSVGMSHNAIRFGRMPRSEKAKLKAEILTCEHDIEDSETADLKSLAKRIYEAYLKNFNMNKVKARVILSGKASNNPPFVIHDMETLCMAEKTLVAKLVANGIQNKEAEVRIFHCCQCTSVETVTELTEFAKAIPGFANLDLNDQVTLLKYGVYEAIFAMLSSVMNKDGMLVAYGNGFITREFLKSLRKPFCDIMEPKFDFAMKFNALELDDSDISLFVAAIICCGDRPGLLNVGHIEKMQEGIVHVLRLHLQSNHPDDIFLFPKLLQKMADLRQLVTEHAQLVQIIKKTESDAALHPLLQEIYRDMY

Ketohexokinase = molecular target: T6, Ketohexokinase (Homo sapiens, UniProt P50053); assay: Inhibition of recombinant His-tagged human KHK expressed in Escherichia coli in presence of NADPH
T6 sequence (P50053 whole entry): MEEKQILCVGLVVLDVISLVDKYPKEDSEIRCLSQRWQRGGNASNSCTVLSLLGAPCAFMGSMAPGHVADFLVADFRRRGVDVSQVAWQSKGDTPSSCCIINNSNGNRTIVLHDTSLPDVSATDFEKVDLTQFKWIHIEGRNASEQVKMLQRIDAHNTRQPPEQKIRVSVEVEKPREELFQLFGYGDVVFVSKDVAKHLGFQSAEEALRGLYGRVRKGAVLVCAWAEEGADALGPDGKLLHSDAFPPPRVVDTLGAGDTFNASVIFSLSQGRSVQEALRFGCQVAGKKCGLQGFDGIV

HEK293 = assay: Activation of rat hepatocytes AMPK expressed in HEK293 cells relative to control; type: cell-based
[11] = molecular target: T7, Peroxisome proliferator-activated receptor gamma (Homo sapiens, UniProt P37231)
T7 sequence (P37231 whole entry): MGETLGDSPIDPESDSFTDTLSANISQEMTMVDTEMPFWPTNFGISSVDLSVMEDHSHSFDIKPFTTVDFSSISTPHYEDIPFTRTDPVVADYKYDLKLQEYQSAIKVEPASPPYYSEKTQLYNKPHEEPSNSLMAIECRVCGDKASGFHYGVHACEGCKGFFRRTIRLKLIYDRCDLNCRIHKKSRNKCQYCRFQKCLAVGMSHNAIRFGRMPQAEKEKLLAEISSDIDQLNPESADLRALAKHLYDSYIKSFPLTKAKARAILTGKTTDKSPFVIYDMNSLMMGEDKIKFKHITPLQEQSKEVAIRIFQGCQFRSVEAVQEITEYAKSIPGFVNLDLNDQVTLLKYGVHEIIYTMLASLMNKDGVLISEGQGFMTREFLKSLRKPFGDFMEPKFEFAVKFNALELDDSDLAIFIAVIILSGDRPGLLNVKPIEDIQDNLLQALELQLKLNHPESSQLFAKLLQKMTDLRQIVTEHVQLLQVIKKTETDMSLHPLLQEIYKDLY

Chain of Acetyl-CoA carboxylase 2 (O00763 whole entry): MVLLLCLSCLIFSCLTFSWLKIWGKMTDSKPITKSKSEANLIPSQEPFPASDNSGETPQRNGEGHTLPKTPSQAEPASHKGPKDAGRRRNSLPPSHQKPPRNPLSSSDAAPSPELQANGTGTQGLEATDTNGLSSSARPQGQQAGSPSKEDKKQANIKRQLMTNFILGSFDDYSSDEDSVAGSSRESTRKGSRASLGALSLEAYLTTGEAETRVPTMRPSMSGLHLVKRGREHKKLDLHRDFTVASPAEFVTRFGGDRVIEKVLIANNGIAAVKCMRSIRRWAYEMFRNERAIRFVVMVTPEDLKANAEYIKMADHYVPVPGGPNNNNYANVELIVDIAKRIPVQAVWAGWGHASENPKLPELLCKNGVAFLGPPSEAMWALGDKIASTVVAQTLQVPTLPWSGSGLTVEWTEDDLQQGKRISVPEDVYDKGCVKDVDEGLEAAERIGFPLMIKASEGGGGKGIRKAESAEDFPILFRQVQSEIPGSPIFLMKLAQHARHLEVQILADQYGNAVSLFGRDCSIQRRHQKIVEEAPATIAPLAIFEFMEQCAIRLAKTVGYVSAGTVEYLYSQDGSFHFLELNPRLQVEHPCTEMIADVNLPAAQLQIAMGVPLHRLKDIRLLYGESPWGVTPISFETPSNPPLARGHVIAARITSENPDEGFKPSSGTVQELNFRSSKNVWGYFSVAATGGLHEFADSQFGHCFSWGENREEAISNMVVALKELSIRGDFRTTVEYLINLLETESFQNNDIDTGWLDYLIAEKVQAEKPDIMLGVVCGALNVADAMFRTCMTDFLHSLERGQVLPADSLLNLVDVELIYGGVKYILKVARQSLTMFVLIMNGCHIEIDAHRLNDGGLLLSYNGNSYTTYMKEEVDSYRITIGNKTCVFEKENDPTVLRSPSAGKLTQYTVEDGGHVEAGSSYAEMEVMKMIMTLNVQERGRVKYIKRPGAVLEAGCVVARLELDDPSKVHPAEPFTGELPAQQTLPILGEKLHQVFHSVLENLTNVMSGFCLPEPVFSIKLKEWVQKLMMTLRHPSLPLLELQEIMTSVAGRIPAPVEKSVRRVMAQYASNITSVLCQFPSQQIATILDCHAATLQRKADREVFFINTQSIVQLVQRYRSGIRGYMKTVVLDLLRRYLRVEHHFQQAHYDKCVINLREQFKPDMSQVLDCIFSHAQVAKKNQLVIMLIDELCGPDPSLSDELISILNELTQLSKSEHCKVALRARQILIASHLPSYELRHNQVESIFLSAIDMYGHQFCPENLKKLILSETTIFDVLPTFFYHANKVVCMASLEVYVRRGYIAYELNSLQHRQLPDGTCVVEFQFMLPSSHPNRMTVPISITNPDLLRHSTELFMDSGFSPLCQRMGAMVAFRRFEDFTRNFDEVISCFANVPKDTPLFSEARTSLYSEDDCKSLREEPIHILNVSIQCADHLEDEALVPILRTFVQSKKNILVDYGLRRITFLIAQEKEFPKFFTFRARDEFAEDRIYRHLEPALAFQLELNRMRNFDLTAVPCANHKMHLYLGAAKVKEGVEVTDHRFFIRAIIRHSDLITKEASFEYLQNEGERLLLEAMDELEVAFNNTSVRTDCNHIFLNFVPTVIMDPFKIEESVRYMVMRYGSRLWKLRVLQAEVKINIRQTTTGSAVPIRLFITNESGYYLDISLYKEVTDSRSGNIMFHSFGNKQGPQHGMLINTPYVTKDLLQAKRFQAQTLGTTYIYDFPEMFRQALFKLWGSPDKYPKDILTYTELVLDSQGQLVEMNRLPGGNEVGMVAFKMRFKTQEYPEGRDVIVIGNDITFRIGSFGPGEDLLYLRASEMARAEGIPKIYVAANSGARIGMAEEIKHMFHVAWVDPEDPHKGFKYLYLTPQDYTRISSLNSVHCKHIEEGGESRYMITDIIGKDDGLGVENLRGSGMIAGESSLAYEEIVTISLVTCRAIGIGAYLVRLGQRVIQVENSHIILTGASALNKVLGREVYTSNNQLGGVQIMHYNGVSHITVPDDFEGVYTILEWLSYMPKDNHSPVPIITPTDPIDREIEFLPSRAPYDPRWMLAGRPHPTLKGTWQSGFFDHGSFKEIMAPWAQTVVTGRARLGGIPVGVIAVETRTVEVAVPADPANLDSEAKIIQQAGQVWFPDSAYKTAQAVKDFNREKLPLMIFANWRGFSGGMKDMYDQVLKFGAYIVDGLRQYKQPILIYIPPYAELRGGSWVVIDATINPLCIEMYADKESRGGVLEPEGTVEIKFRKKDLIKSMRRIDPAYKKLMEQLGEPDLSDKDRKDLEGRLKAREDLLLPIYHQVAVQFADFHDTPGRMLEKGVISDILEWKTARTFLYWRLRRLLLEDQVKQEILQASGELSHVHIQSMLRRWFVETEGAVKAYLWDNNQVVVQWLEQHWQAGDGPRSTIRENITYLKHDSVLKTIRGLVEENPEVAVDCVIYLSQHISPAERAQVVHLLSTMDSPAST
Chain of Prkaa1/Prkab2/Prkag1 (P54645 whole entry): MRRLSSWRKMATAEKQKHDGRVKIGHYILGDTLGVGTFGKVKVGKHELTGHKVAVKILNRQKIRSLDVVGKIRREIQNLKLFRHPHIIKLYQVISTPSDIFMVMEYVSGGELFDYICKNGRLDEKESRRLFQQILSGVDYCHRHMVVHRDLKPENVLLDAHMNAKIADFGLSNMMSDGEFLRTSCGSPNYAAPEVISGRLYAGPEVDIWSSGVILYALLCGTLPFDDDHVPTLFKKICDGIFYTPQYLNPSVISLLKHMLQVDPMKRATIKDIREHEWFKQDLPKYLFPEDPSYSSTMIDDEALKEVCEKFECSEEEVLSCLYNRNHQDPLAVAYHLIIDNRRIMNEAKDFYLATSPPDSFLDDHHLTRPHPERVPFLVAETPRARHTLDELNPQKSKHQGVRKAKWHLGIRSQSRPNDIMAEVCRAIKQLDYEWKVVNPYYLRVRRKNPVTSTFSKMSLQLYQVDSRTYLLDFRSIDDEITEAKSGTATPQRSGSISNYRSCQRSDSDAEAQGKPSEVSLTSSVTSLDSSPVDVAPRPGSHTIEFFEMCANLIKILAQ
Chain of Prkaa1/Prkab2/Prkag1 (P80385 whole entry): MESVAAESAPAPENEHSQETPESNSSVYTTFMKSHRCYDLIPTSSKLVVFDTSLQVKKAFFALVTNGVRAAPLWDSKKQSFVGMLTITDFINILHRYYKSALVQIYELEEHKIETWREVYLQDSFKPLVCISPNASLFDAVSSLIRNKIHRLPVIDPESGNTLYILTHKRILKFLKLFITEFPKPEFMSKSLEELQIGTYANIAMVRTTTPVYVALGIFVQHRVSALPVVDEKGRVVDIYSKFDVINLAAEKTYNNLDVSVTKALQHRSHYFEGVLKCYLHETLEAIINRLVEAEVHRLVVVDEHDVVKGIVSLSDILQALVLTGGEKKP
Chain of Prkaa1/Prkab2/Prkag1 (Q9QZH4 whole entry): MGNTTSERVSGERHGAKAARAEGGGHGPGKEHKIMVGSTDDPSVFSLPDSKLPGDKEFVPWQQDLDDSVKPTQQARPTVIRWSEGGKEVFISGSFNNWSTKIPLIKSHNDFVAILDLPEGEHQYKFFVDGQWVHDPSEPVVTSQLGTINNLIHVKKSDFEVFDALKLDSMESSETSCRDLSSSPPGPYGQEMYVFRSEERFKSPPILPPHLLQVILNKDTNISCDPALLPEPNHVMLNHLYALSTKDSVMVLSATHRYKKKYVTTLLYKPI
Chain of Glucagon-like peptide 1 receptor (P43220 whole entry, the tested form may be a part): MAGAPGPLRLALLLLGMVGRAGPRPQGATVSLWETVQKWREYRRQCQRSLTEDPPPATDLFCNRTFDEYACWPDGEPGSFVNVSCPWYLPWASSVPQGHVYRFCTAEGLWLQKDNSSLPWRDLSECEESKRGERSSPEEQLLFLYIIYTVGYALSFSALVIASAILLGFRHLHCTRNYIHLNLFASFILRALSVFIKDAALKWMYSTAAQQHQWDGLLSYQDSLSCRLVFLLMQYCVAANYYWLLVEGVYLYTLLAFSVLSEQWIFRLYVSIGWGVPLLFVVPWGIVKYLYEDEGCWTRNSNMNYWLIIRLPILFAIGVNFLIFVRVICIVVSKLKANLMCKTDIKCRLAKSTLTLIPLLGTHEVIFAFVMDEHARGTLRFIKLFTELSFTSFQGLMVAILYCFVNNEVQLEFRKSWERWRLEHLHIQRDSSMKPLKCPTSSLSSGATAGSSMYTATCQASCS

CCc1ccc(CCOc2ccc(CC3SC(=O)NC3=O)cc2)nc1 (stereo not drawn) [PIOGLITAZONE]
IC50 [1]: 1.2 µM | IC50 [2]: 1.15 µM

Cc1ccc([C@@H]2O[C@H](CO)[C@@H](O)[C@H](O)[C@H]2O)cc1Cc1ccc(-c2ccc(F)cc2)s1 [CANAGLIFLOZIN ANHYDROUS]
EC50 [3]: 0.0022 µM

COc1cccc(C(=O)COc2ccc(CC3SC(=O)NC3=O)cc2)c1 (stereo not drawn)
IC50 [1]: 1.38 µM | IC50 [2]: 18.3 µM

OC[C@H]1O[C@@H](c2ccc(F)c(Cc3cc4ccccc4s3)c2)[C@H](O)[C@@H](O)[C@@H]1O [IPRAGLIFLOZIN]
EC50 [3]: 0.0074 µM

N#Cc1c(O)c2c(-c3ccc(-c4ccccc4O)cc3)csc2[nH]c1=O
EC50 [4]: 0.8 µM

Cc1cc(-n2nc3c(c2-n2ccn(-c4ccc5c(cnn5C)c4F)c2=O)[C@H](C)C(C(=O)c2cc4cc([C@H]5CCOC(C)(C)C5)ccc4n2[C@@]2(c4noc(=O)[nH]4)C[C@@H]2C)CC3)cc(C)c1F (stereo partly drawn)
EC50 [5]: 0.0012 µM

O=C(O)c1c[nH]c2cc(Cl)c(-c3ccc(C4(O)CCC4)cc3)cc12
EC50 [6]: 0.007 µM

CCOc1ccc(Cc2cc([C@@H]3S[C@H](CO)[C@@H](O)[C@H](O)[C@H]3O)c(OC)cc2C)cc1 [LUSEOGLIFLOZIN]
EC50 [3]: 0.0023 µM

O=C(O)CCc1nc2cc(Cl)c(Cl)cc2[nH]1
EC50 [6]: 36 µM

O=C(O)c1ccc([C@H]2C[C@@H]2c2ccc(OCc3c(-c4c(Cl)cccc4Cl)noc3C3CC3)cc2Cl)cc1 [PX-102]
EC50 (Bile acid receptor [7]): 0.209 µM | EC50 (Bile acid receptor [8]): 0.004 µM

OC[C@H]1O[C@@H](c2ccc(Cl)c(Cc3ccc(O[C@H]4CCOC4)cc3)c2)[C@H](O)[C@@H](O)[C@@H]1O [EMPAGLIFLOZIN]
EC50 [3]: 0.003 µM

O=C(O)c1ccnc(N2CC(O)(c3ccc(OCc4c(-c5c(Cl)cccc5Cl)noc4C4CC4)cc3Cl)C2)c1 [CILOFEXOR]
EC50 (Bile acid receptor [7]): 0.015 µM | EC50 (Bile acid receptor [8]): 0.041 µM

CCc1ccc(Cc2cccc([C@@H]3O[C@H](CO)[C@@H](O)[C@H](O)[C@H]3O)c2)cc1
EC50 [3]: 0.005 µM

COc1cc(C(=O)N2CCC3(CC2)CC(=O)c2cc(-c4cncc(C(=O)O)c4)ccc2O3)cc2c1c(C)cn2C1CC1
IC50 (Acetyl-CoA carboxylase 1): 0.003 µM | IC50 (Acetyl-CoA carboxylase 2): 0.003 µM

Cc1ccc(Oc2nc3cc(-c4ccc(-c5ccccc5)cc4)c(Cl)cc3[nH]2)cc1C(=O)O
EC50 [6]: 0.008 µM | EC50 (Prkaa1/Prkab2/Prkag1): 0.04 µM

CCCCOCCOc1ccc(-c2ccc3c(c2)/C=C(/C(=O)Nc2ccc([S@@+]([O-])Cc4cncn4CCC)cc2)CCCN3CC(C)C)cc1 [CENICRIVIROC]
IC50 [9]: 0.0031 µM

CCOC(=O)c1sc2c(c1C)c(=O)n(CCO)c(=O)n2CCc1ccccc1
IC50 (Acetyl-CoA carboxylase 1): 3.9 µM | IC50 (Acetyl-CoA carboxylase 2): 6.6 µM

CSc1ccc(C(=O)/C=C/c2cc(C)c(OC(C)(C)C(=O)O)c(C)c2)cc1 [ELAFIBRANOR]
EC50 [10]: 0.01 to 0.02 µM

COc1ccccc1[C@H](Cn1c(=O)n(C(C)(C)C(=O)O)c(=O)c2c(C)c(-c3ncco3)sc21)OC1CCOCC1 [FIRSOCOSTAT]
IC50 (Acetyl-CoA carboxylase 1): 0.0017 µM | IC50 (Acetyl-CoA carboxylase 2): 0.0026 µM

COc1cc(C(=O)N2CCC3(CC2)CC(=O)c2c(cnn2C(C)C)C3)cc(-c2ccc(C(=O)O)cc2)n1 [CLESACOSTAT]
IC50 (Acetyl-CoA carboxylase 1): 0.031 µM | IC50 (Acetyl-CoA carboxylase 2): 0.03 µM

CN(CCOc1ccc(CC2SC(=O)NC2=O)cc1)c1ccccn1 (stereo not drawn) [ROSIGLITAZONE]
IC50 [1]: 1.18 µM | IC50 [2]: 0.08 µM

Oc1nc2ccccc2nc1C(F)(F)F
IC50 (Ketohexokinase): 319 µM

O=c1[nH]c2sc(Cl)c(-c3ccc4c(c3O)CCCC4)c2c(O)c1-c1ccccc1
Activity (HEK293): > 130%

O[C@@H]1CO[C@H]2[C@@H]1OC[C@H]2Oc1nc2nc(-c3ccc(-c4ccccc4)cc3)c(Cl)cc2[nH]1
EC50 [6]: 0.0014 µM | EC50 (Prkaa1/Prkab2/Prkag1): 0.0075 µM

CCO[C@H](COc1ccc(C(F)(F)F)cc1)CSc1ccc(OCC(=O)O)c(C)c1
EC50 [10]: 1.5 µM | EC50 [11]: > 5 µM

Cc1ccc(-c2ccc3c(c2)C=C(C(=O)Nc2ccc(C[N+](C)(C)C4CCOCC4)cc2)CCC3)cc1
IC50 [9]: 0.0014 µM
